Measured values taken from the SangsterLogP compilation.

| Structure (SMILES) | logP |
| --- | --- |
| FC(F)=C(F)C(F)(F)F | 1.98 |
| FC(F)=CCl | 1.52 |
| FCC(F)(F)F | 1.06 |
| FC(F)C(F)(F)F | 1.45 |
| FC(Cl)(Cl)Cl | 2.26 |
| FC(Cl)C(F)(F)F (stereo unspecified) | 1.75 |
| CC(F)(Cl)Cl | 1.95 |
| FC(F)(F)F | 1.36 |
| FCC(F)Cl (stereo unspecified) | 1.62 |
| FCC(F)(F)Cl | 1.45 |
| FC(C(F)(F)F)C(F)(F)F | 2.22 |
